Data on 16 molecules can be found in patent US12428406B2 (PMV Pharmaceuticals, Inc., priority 2019, dated 2025).

For this assay, the target named is T1, p53 Y220C (Homo sapiens, UniProt P04637, Y220C).
T1 construct: The recombinant protein was a truncation mutant containing only amino acids 94-312 of p53; made in house; host or cells: E. coli
T1 sequence (P04637 94-312, change not shown): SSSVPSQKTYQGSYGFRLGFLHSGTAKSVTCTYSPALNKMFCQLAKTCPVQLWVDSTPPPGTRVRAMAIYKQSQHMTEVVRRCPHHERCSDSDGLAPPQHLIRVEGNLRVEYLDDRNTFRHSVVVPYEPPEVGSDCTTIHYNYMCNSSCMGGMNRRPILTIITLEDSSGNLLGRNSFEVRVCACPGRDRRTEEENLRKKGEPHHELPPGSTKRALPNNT
Kind of assay: In vitro DNA binding activity assay (HTRF / TR-FRET): stabilization of p53 Y220C and increase of its DNA binding activity. The assay is classed as biochemical. The settings on record: recombinant His-tagged p53 Y220C DNA binding domain (aa 94-312), biotin-labeled consensus DNA, incubated at 27° C. or 29° C. for 60 min. The method, boiled down: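 Test compounds, diluted 3-fold in DMSO from 4.5 mM stocks, were incubated with bacterially expressed His-tagged p53 Y220C at room temperature for 15 min, and after a further step for 20 min. DNA binding was detected by time-resolved FRET between APC and europium labels. SC150 marks the concentration increasing binding by 50%.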
For orientation: TR-FRET usually uses a lanthanide donor and a delayed reading to cut background.
On to `CN(C)[C@H]1CC[C@H](Nc2cccc3c2cc(C#CCNc2ccc(S(C)(=O)=O)cc2OCC(F)(F)F)n3CC(F)(F)F)CC1` [Compound 92A, (1R,4R)-N^4-[2-(3-{[4-methanesulfonyl-2-(2,2,2-trifluoroethoxy)phenyl]amino}prop-1-yn-1-yl)-1-(2,2,2-trifluoro-ethyl)-1H-indol-4-yl]-N^1,N^1-dimethylcyclo-hexane-1,4-diamine], for which the “SC150 (concentration of the compound required to increase the DNA binding activity by 50%)” value was “+ (+ = 0 μM ≤ SC150 < 0.05 μM)”.
The result for `COCCNC(=O)c1ccc(NCC#Cc2cc3c(NC4CCN(C)CC4)cccc3n2CC(F)(F)F)c(OC)c1` [Compound 497A] reads “+ (+ = 0 μM ≤ SC150 < 0.05 μM)”; that for `COc1cc(S(=O)(=O)N2CCN(C(C)=O)CC2)ccc1NCC#Cc1cc2c(NC3CCOCC3)cccc2n1CC(F)(F)F` [Compound 1001A, 1-(4-{3-methoxy-4-[(3-{4-[(oxan-4-yl)amino]-1-(2,2,2-trifluoroethyl)-1H-indol-2-yl}prop-2-yn-1-yl)amino]benzenesulfonyl}piperazin-1-yl)ethan-1-one], “+ (+ = 0 μM ≤ SC150 < 0.05 μM)”; that for `COc1cc(S(N)(=O)=O)ccc1NCC#Cc1cc2c(NC3CCN(C[C@@H]4COC(C)(C)O4)CC3)cccc2n1CC(F)(F)F` [Compound 568A, 4-[(3-{4-[(1-{[(4R)-2,2-dimethyl-1,3-dioxolan-4-yl]methyl}piperidin-4-yl)amino]-1-(2,2,2-trifluoroethyl)-1H-indol-2-yl}prop-2-yn-1-yl)amino]-3-methoxybenzene-1-sulfonamide], “+ (+ = 0 μM ≤ SC150 < 0.05 μM)”.
Turning to `COc1cc(C(=O)N2CCC(O)CC2)ccc1NCC#Cc1cc2c(NC3CCN(C)CC3)cccc2n1CC(F)(F)F` [Compound 492A], the “SC150 (concentration of the compound required to increase the DNA binding activity by 50%)” value is given as “+ (+ = 0 μM ≤ SC150 < 0.05 μM)”.
Consider `COc1cc(S(C)(=O)=O)ccc1N(C)CC#Cc1cc2c(NC3CCN(C)CC3)cccc2n1CC(F)(F)F` [Compound 478A, 2-{3-[(4-methanesulfonyl-2-methoxyphenyl) (methyl)amino]prop-1-yn-1-yl}-N-(1-methylpiperidin-4-yl)-1-(2,2,2-trifluoroethyl)-1H-indol-4-amine], for which the “SC150 (concentration of the compound required to increase the DNA binding activity by 50%)” value is given as “++++ (++++ = 0.2 μM ≤ SC150 < 1 μM)”.
Then `COc1cc(S(C)(=O)=O)ccc1NCC#Cc1cc2c(NC(=O)NC3CCN(CC(O)CO)CC3)cccc2n1CC(F)(F)F` (stereo not shown) [Compound 15A, 1-[1-(2,3-dihydroxypropyl)piperidin-4-yl]-3-(2-{3-[(4-methanesulfonyl-2-methoxyphenyl)amino]prop-1-yn-1-yl}-1-(2,2,2-trifluoroethyl)-1H-indol-4-yl)urea], with “++++ (++++ = 0.2 μM ≤ SC150 < 1 μM)”.
Turning to `COCC(O)CN1CCC(Nc2cccc3c2cc(C#CCNc2ccc(S(C)(=O)=O)cc2OCCF)n3CC(F)(F)F)CC1` (stereo not shown) [Compound 625A, 1-(4-{[2-(3-{[2-(2-fluoroethoxy)-4-methanesulfonylphenyl]amino}prop-1-yn-1-yl)-1-(2,2,2-trifluoroethyl)-1H-indol-4-yl]amino}piperidin-1-yl)-3-methoxypropan-2-ol], the “SC150 (concentration of the compound required to increase the DNA binding activity by 50%)” value was “+ (+ = 0 μM ≤ SC150 < 0.05 μM)”.
With `N#CCOc1cc(S(N)(=O)=O)ccc1NCC#Cc1cc2c(N[C@H]3CC[C@H](N4CCOCC4)CC3)cccc2n1CC(F)(F)F` [Compound 342A, 3-(cyanomethoxy)-4-{[3-(4-{[(1R,4R)-4-(morpholin-4-yl)cyclohexyl]amino}-1-(2,2,2-trifluoroethyl)-1H-indol-2-yl)prop-2-yn-1-yl]amino}benzene-1-sulfonamide], the “SC150 (concentration of the compound required to increase the DNA binding activity by 50%)” value is listed as “+ (+ = 0 μM ≤ SC150 < 0.05 μM)”.
As to `COCC(O)CN1CCC(Nc2cccc3c2cc(C#CCNc2ccc(S(C)(=O)=O)cc2O)n3CC(F)(F)F)CC1` (stereo not shown) [Compound 621A, 2-{[3-(4-{[1-(2-hydroxy-3-methoxypropyl)piperidin-4-yl]amino}-1-(2,2,2-trifluoroethyl)-1H-indol-2-yl)prop-2-yn-1-yl]amino}-5-methanesulfonylphenol], the “SC150 (concentration of the compound required to increase the DNA binding activity by 50%)” value was “+ (+ = 0 μM ≤ SC150 < 0.05 μM)”.
Take `COCCN(C)[C@H]1CC[C@H](Nc2cccc3c2cc(C#CCNc2ccc(S(N)(=O)=O)cc2OC)n3CC(F)(F)F)CC1` [Compound 160A, 3-methoxy-4-{[3-(4-{[(1R,4R)-4-[(2-methoxyethyl)(methyl)amino]cyclohexyl]amino}-1-(2,2,2-trifluoroethyl)-1H-indol-2-yl)prop-2-yn-1-yl]amino}benzene-1-sulfonamide]: the “SC150 (concentration of the compound required to increase the DNA binding activity by 50%)” value is listed as “+ (+ = 0 μM ≤ SC150 < 0.05 μM)”.
In the case of `CCN1CC[C@@H](Nc2cccc3c2cc(C#CCNc2ccc(C(=O)NC)cc2OC)n3CC(F)(F)F)[C@@H](F)C1` [Compound 1074A, 4-{[3-(4-{[(3S,4R)-1-ethyl-3-fluoropiperidin-4-yl]amino}-1-(2,2,2-trifluoroethyl)-1H-indol-2-yl)prop-2-yn-1-yl]amino}-3-methoxy-N-methylbenzamide], the “SC150 (concentration of the compound required to increase the DNA binding activity by 50%)” value is “+ (+ = 0 μM ≤ SC150 < 0.05 μM)”.
On to `NS(=O)(=O)c1ccc(NCC#Cc2cc3c(N[C@H]4CC[C@H](N5CCOCC5)CC4)cccc3n2CC(F)(F)F)c(OCF)c1` [Compound 344A, 3-(fluoromethoxy)-4-{[3-(4-{[(1R,4R)-4-(morpholin-4-yl)cyclohexyl]amino}-1-(2,2,2-trifluoroethyl)-1H-indol-2-yl)prop-2-yn-1-yl]amino}benzene-1-sulfonamide], for which the “SC150 (concentration of the compound required to increase the DNA binding activity by 50%)” value is “+ (+ = 0 μM ≤ SC150 < 0.05 μM)”.
`CCS(=O)(=O)c1ccc(NCC#Cc2cc3c(N[C@H]4CC[C@H](N(C)C)CC4)cccc3n2CC(F)(F)F)c(OC)c1` [Compound 119A, (1R,4R)—N^4-[2-(3-{[4-(ethanesulfonyl)-2-methoxyphenyl]amino}prop-1-yn-1-yl)-1-(2,2,2-trifluoroethyl)-1H-indol-4-yl]-N^1,N^1-dimethylcyclohexane-1,4-diamine]: the “SC150 (concentration of the compound required to increase the DNA binding activity by 50%)” value is recorded as “+ (+ = 0 μM ≤ SC150 < 0.05 μM)”.
With `CCC(=O)OC(COC)CN1CCC(Nc2cccc3c2cc(C#CCNc2ccc(S(N)(=O)=O)cc2OC)n3CC(F)(F)F)CC1` (stereo not shown) [Compound 610A, 1-methoxy-3-{4-[(2-{3-[(2-methoxy-4-sulfamoylphenyl)amino]prop-1-yn-1-yl}-1-(2,2,2-trifluoroethyl)-1H-indol-4-yl)amino]piperidin-1-yl} propan-2-yl propanoate], the “SC150 (concentration of the compound required to increase the DNA binding activity by 50%)” value is “+ (+ = 0 μM ≤ SC150 < 0.05 μM)”.
Consider `COc1cc(C(=O)NC[C@@H](C)O)ccc1NCC#Cc1cc2c(N[C@@H]3CCN(C)C[C@@H]3F)cccc2n1CC(F)(F)F` [Compound 957A, 4-((3-(4-(((3S,4R)-3-fluoro-1-methylpiperidin-4-yl)amino)-1-(2,2,2-trifluoroethyl)-1H-indol-2-yl)prop-2-yn-1-yl)amino)-N—((R)-2-hydroxypropyl)-3-methoxybenzamide], for which the “SC150 (concentration of the compound required to increase the DNA binding activity by 50%)” value is “+ (+ = 0 μM ≤ SC150 < 0.05 μM)”.
